How the values were obtained:
[1] = for mass density / kinematic viscosity: 101.33 kPa, Liquid; for mass density: Vibrating tube method; for surface tension liquid-gas / kinematic viscosity: Surface laser light scattering (SLLS)
[2] = refractive index (Na D-line) (dimensionless); details: 101.33 kPa, Liquid, Standard Abbe refractometry

CCCCCCCCCCCC(=O)OC [methyl dodecanoate]
Details	kinematic viscosity [m2/s]	mass density [kg/m3]	refractive index	surface tension liquid-gas [mN/m]
[1], 293.15 K	–	869.26	–	–
[1], 298.14 K	2.81e-06	–	–	23.49
[1], 303.15 K	–	861.25	–	–
[1], 313.15 K	–	853.32	–	–
[1], 323.15 K	–	845.42	–	–
[1], 323.16 K	1.9e-06	–	–	22.02
[1], 333.15 K	–	837.53	–	–
[1], 343.15 K	–	829.63	–	–
[1], 348.15 K	1.44e-06	–	–	21.12
[1], 353.15 K	–	820.84	–	–
[1], 363.15 K	–	813.94	–	–
[1], 373.15 K	–	806.11	–	–
[1], 373.17 K	1.14e-06	–	–	19.82
[1], 383.15 K	–	798.22	–	–
[1], 393.15 K	–	790.34	–	–
[1], 398.27 K	9.1e-07	–	–	18.66
[1], 403.15 K	–	782.4	–	–
[1], 413.15 K	–	774.39	–	–
[1], 423.15 K	–	766.34	–	–
[1], 423.25 K	7.36e-07	–	–	17.48
[1], 433.15 K	–	758.26	–	–
[1], 443.15 K	–	750.06	–	–
[1], 448.25 K	5.99e-07	–	–	15.99
[1], 453.15 K	–	741.94	–	–
[2], 278.15 K	–	–	1.43836	–
[2], 283.15 K	–	–	1.43629	–
[2], 288.15 K	–	–	1.43422	–
[2], 293.15 K	–	–	1.43216	–
[2], 298.15 K	–	–	1.43009	–
[2], 303.15 K	–	–	1.42802	–
[2], 308.15 K	–	–	1.42594	–
[2], 313.15 K	–	–	1.42383	–
[2], 318.15 K	–	–	1.42171	–
[2], 323.15 K	–	–	1.41959	–
[2], 328.15 K	–	–	1.4175	–
[2], 333.15 K	–	–	1.41542	–
[2], 338.15 K	–	–	1.41334	–
[2], 343.15 K	–	–	1.41127	–
[2], 348.15 K	–	–	1.40922	–
[2], 353.15 K	–	–	1.40717	–
[2], 358.15 K	–	–	1.40513	–

CCCCCCC(=O)OC [methyl heptanoate]
Details	kinematic viscosity [m2/s]	mass density [kg/m3]	refractive index	surface tension liquid-gas [mN/m]
[1], 293.15 K	–	879.29	–	–
[1], 298.13 K	1.22e-06	–	–	24.75
[1], 303.15 K	–	870.75	–	–
[1], 313.15 K	–	861.6	–	–
[1], 323.15 K	–	852.39	–	–
[1], 323.17 K	8.92e-07	–	–	23
[1], 333.15 K	–	843.15	–	–
[1], 343.15 K	–	833.87	–	–
[1], 348.19 K	6.79e-07	–	–	21.02
[1], 353.15 K	–	824.55	–	–
[1], 363.15 K	–	814.17	–	–
[1], 373.15 K	–	805.69	–	–
[1], 373.26 K	5.32e-07	–	–	18.72
[1], 383.15 K	–	796.11	–	–
[1], 393.15 K	–	786.44	–	–
[1], 398.29 K	4.34e-07	–	–	16.66
[1], 403.15 K	–	776.63	–	–
[1], 413.15 K	–	766.7	–	–
[1], 423.15 K	–	756.62	–	–
[1], 423.26 K	3.66e-07	–	–	14.43
[1], 433.15 K	–	746.31	–	–
[1], 448.29 K	3.14e-07	–	–	12.33
[2], 278.15 K	–	–	1.41865	–
[2], 283.15 K	–	–	1.41643	–
[2], 288.15 K	–	–	1.41421	–
[2], 293.15 K	–	–	1.41199	–
[2], 298.15 K	–	–	1.40976	–
[2], 303.15 K	–	–	1.40753	–
[2], 308.15 K	–	–	1.4053	–
[2], 313.15 K	–	–	1.40301	–
[2], 318.15 K	–	–	1.4007	–
[2], 323.15 K	–	–	1.39841	–
[2], 328.15 K	–	–	1.39614	–
[2], 333.15 K	–	–	1.39389	–
[2], 338.15 K	–	–	1.39167	–
[2], 343.15 K	–	–	1.38946	–
[2], 348.15 K	–	–	1.38724	–
[2], 353.15 K	–	–	1.38501	–
[2], 358.15 K	–	–	1.38276	–
